Here are results for 47 molecules from patent publication US7902235B2 (priority 2004, dated 2011).

Series [1] has as its system tripeptidyl-peptidase 1 (TPP-I). The note with it: patient-derived LINCL cell line, compound heterozygous Arg208Stop and a rare nonsense mutation; maximal; cited from earlier work.

As for `CC(OC(=O)NC(=O)c1cccc(-c2noc(-c3ccccc3F)n2)c1)C(C)(C)C` (racemic) [Compound 37, (±)-{3-[5-(2-Fluorophenyl)-[1,2,4]oxadiazol-3-yl]benzoyl}carbamic Acid 1,2,2-trimethylpropyl Ester], the melting point was 170 to 173 °C.
Same read-out and setting: the result for `COC(=O)NC(=O)c1cccc(-c2noc(-c3ccccc3F)n2)c1` [Compound 1] reads 176 to 177 °C.
On the same count and under the same terms, the result for `CCOC(=O)NC(=O)c1cccc(-c2noc(-c3ccccc3F)n2)c1` [Compound 2] reads 160.5 to 162 °C; that for `CC(C)OC(=O)NC(=O)c1cccc(-c2noc(-c3ccccc3F)n2)c1` [Compound 3], 172 to 174 °C.
Same read-out and setting: the result for `O=C(NC(=O)c1cccc(-c2noc(-c3ccccc3F)n2)c1)NC1CC1` [Compound 4] reads 226 to 227.5 °C.
On to `CONC(=O)NC(=O)c1cccc(-c2noc(-c3ccccc3F)n2)c1` [Compound 5], for which the melting point was 206 to 207 °C.
Molecule `NC(=O)NC(=O)c1cccc(-c2noc(-c3ccccc3F)n2)c1` [Compound 6] showed a melting point of 240 °C.
Same read-out and setting: the result for `O=C(NCCF)NC(=O)c1cccc(-c2noc(-c3ccccc3F)n2)c1` [Compound 7] reads 233 to 234 °C; that for `O=C(NC(=O)c1cccc(-c2noc(-c3ccccc3F)n2)c1)Nc1ncccn1` [Compound 8], 247 to 249 °C.
In turn, `O=C(NC(=O)c1cccc(-c2noc(-c3ccccc3F)n2)c1)Nc1ccccn1` [Compound 9] showed a melting point of 252 to 254 °C.
On the same count and under the same terms, the result for `O=C(NC(=O)c1cccc(-c2noc(-c3ccccc3F)n2)c1)Oc1ccccc1` [Compound 10] reads 252 to 254 °C; that for `O=C(NC(=O)c1cccc(-c2noc(-c3ccccc3F)n2)c1)OC1CCOCC1` [Compound 11], 177.5 to 179 °C.
For the molecule `O=C(NC(=O)c1cccc(-c2noc(-c3ccccc3F)n2)c1)OCCN1CCOCC1` [Compound 12], the melting point was in the range of 223 to 224 °C.
Still for that read-out and setting: the result for `Cc1ccc(S(=O)(=O)NC(=O)NC(=O)c2cccc(-c3noc(-c4ccccc4F)n3)c2)cc1` [Compound 15] reads 188 to 191 °C; that for `O=C(NC(=O)c1cccc(-c2noc(-c3ccccc3F)n2)c1)OCCc1ccccc1` [Compound 16], 129 to 130 °C; that for `O=C(NC(=O)c1cccc(-c2noc(-c3ccccc3F)n2)c1)OC1CCCCC1` [Compound 17], 172 to 174 °C.
The same measure, in the same setting: the result for `O=C(NC(=O)c1cccc(-c2noc(-c3ccccc3F)n2)c1)OCC1CCCCC1` [Compound 18] reads 134 to 138 °C; that for `O=C(NC(=O)c1cccc(-c2noc(-c3ccccc3F)n2)c1)OCc1ccccc1` [Compound 19], 133 to 134 °C.
On the same count and under the same terms, the result for `CCCOC(=O)NC(=O)c1cccc(-c2noc(-c3ccccc3F)n2)c1` [Compound 20] reads 152 to 155 °C; that for `COCCOC(=O)NC(=O)c1cccc(-c2noc(-c3ccccc3F)n2)c1` [Compound 21], 139 to 141 °C.
`O=C(NC(=O)c1cccc(-c2noc(-c3ccccc3F)n2)c1)OC1CCCC1` [Compound 22] yielded a melting point of 187 to 190 °C.
Same read-out and setting: the result for `O=C(NC(=O)c1cccc(-c2noc(-c3ccccc3F)n2)c1)Oc1cccc2c1CCCC2` [Compound 23] reads 199 to 202 °C; that for `O=C(NC(=O)N1CCCC1)c1cccc(-c2noc(-c3ccccc3F)n2)c1` [Compound 24], 178 to 180 °C.
Same read-out and setting: the result for `O=C(NC(=O)N1CCOCC1)c1cccc(-c2noc(-c3ccccc3F)n2)c1` [Compound 25, Morpholine-4-carboxylic Acid 3-[5-(2-fluorophenyl)-[1,2,4]oxadiazol-3-yl]benzoylamide] reads 190 to 194 °C.
`CCN(CC)C(=O)NC(=O)c1cccc(-c2noc(-c3ccccc3F)n2)c1` [Compound 26] gave a melting point of 161 to 163 °C.
Same read-out and setting: the result for `Cc1cc(C)cc(NC(=O)NC(=O)c2cccc(-c3noc(-c4ccccc4F)n3)c2)c1` [Compound 27] reads 247 to 250 °C; that for `O=C(NC(=O)N1CCN(c2ccccc2)CC1)c1cccc(-c2noc(-c3ccccc3F)n2)c1` [Compound 28], 169 to 173 °C.
Still for that read-out and setting: the result for `CC(OC(=O)NC(=O)c1cccc(-c2noc(-c3ccccc3F)n2)c1)c1ccccc1` (centres unmarked) [Compound 30] reads 140 to 141 °C.
`CC(OC(=O)NC(=O)c1cccc(-c2noc(-c3ccccc3F)n2)c1)C1CC1` (centres unmarked) [Compound 31] showed a melting point of 150 to 152 °C.
Same read-out and setting: the result for `O=C(NC(=O)c1cccc(-c2noc(-c3ccccc3F)n2)c1)OC1CCCc2ccccc21` (centres unmarked) [Compound 32] reads 168 to 170 °C.
The same measure, in the same setting: the result for `O=C(NC(=O)c1cccc(-c2noc(-c3ccccc3F)n2)c1)OC(c1ccccc1)C(F)(F)F` (centres unmarked) [Compound 33] reads 164 to 165 °C; that for `COCC(C)OC(=O)NC(=O)c1cccc(-c2noc(-c3ccccc3F)n2)c1` (centres unmarked) [Compound 34], 141 to 143 °C.
Consider `O=C(NC(=O)c1cccc(-c2noc(-c3ccccc3F)n2)c1)OC1CCOC1` (centres unmarked) [Compound 35], for which the melting point is 197 to 200 °C.
On the same count and under the same terms, the result for `O=C(NC(=O)c1cccc(-c2noc(-c3ccccc3F)n2)c1)OC1Cc2ccccc2C1` [Compound 36] reads 165 to 168 °C; that for `CC(C)C(C)OC(=O)NC(=O)c1cccc(-c2noc(-c3ccccc3F)n2)c1` (centres unmarked) [Compound 38], 168 to 170 °C.
On the same count and under the same terms, the result for `CC(C)CC(C)OC(=O)NC(=O)c1cccc(-c2noc(-c3ccccc3F)n2)c1` (centres unmarked) [Compound 39] reads 108 to 109 °C; that for `CC(OC(=O)NC(=O)c1cccc(-c2noc(-c3ccccc3F)n2)c1)c1ccc(C(F)(F)F)cc1` (centres unmarked) [Compound 40], 161 to 163 °C.
On the same count and under the same terms, the result for `O=C(NC(=O)c1cccc(-c2noc(-c3ccccc3F)n2)c1)OC1CCN(Cc2ccccc2)CC1` [Compound 42] reads 132 to 134 °C.
In turn, `CN1C(=O)C[C@H](OC(=O)NC(=O)c2cccc(-c3noc(-c4ccccc4F)n3)c2)C1=O` [Compound 43] displayed a melting point of 120 to 123 °C.
The same measure, in the same setting: the result for `C[C@@H](OC(=O)NC(=O)c1cccc(-c2noc(-c3ccccc3F)n2)c1)C(N)=O` [Compound 44] reads 193 to 196 °C.
The same measure, in the same setting: the result for `CC(=O)NC(=O)c1cccc(-c2noc(-c3ccccc3F)n2)c1` [Compound 45, N-Acetyl-3-[5-(2-fluorophenyl)-[1,2,4]oxadiazol-3-yl]benzamide] reads 119 to 120 °C; that for `CC(C)C(=O)NC(=O)c1cccc(-c2noc(-c3ccccc3F)n2)c1` [Compound 46, 3-[5-(2-Fluorophenyl)-[1,2,4]oxadiazol-3-yl]-N-isobutyrl-benzamide], 183 to 184 °C; that for `O=C(NC(=O)C(F)(F)F)c1cccc(-c2noc(-c3ccccc3F)n2)c1` [Compound 47], 119 to 120 °C.
In turn, `CC(OC(=O)NC(=O)c1cccc(-c2noc(-c3ccccc3F)n2)c1)c1ccncc1` (centres unmarked) [Compound 48] gave a melting point of 180 to 183 °C.
Same read-out and setting: the result for `O=C(NC(=O)c1cccc(-c2noc(-c3ccccc3F)n2)c1)O[C@@H]1CCOC1` [Compound 49] reads 152 to 156 °C; that for `CC(OC(=O)NC(=O)c1cccc(-c2noc(-c3ccccc3F)n2)c1)c1ccc(F)cc1` (centres unmarked) [Compound 51], 116 to 118 °C.
With gentamicin, the “TPP-I restored, of normal levels” value in series [1] is “approximately 7%”.
